Assays:
TNBS-induced colitis = assay: TNBS-induced colitis; assay type: in vivo, Female BalbC mice; conditions: 15 mg/kg orally, Balb/c mice
Experimental: Female BalbC mice (6-8 weeks old) were used in the study. Mice were sensitized by topical application of 1% trinitrobenzene sulfonic acid (TNBS) in acetone/olive oil solution (4:1). After 7 days of sensitization, mice were challenged with 2.5% TNBS solution by intra-rectal route administered 5 mL/kg of body weight under anesthesia. Mice were monitored for development of disease over 5 days. TNBS-treated mice were randomly divided into 2 groups: TNBS-control (TNBS) and TNBS + compound of formula (Ia) (15 mg/kg, orally). Treatment was started on one day before TNBS challenge (2.5 %) and continued up to day 5 after TNBS challenge (2.5%). Animals were monitored for body weight change daily for 5 days. Intestinal permeability was estimated by Evans blue method (Han ED et al., 2002).

DSS-induced colitis = assay: DSS-induced colitis; assay type: in vivo, male C57 mice
Experimental: The 8 to 10 week old male C57 mice (18-20 g) were used in the study. Animals were divided into two experimental groups: vehicle control and compound of formula (Ia). Same day animals were provided 2% dextran sulfate sodium (DSS) solution in water for 7 days. Animals were treated with vehicle or compound of formula (Ia) (15 mg/kg) by oral route daily for 10 days. Body weight was recorded daily for 10 days. Disease activity score was evaluated based on stool consistency and rectal bleeding (Kim JJ et al., 2012). Relative colon length was measured. Colon myeloperoxidase (MPO) activity was estimated (Kim JJ et al., 2012).

O=C(O)CNC(=O)c1c(O)c2ccccc2n(OCC2CC2)c1=O [Compound of formula (Ia), Desidustat]
weight gain when compared with vehicle control (TNBS-induced colitis; 5th day after TNBS challenge): 17.4 ± 1.4% | decrease in intestinal permeability when compared against vehicle control (TNBS-induced colitis; Evans blue method): 51.7 ± 4.4% | reduction of colon MPO against vehicle control (DSS-induced colitis; 15 mg/kg oral daily for 10 days, colon myeloperoxidase activity): 74.9 ± 5.0% | decrease in disease activity score when compared with vehicle control (DSS-induced colitis; 15 mg/kg oral daily for 10 days, score based on stool consistency and rectal bleeding): 31.8 ± 9.8% | increase in body weight against vehicle control (DSS-induced colitis; 15 mg/kg oral daily, after ten days of treatment, 2% DSS for 7 days): 49.0 ± 12.9%

Reference: patent publication US20230233550A1, “TREATMENT FOR THE INFLAMMATORY BOWEL DISEASE” (priority 2020, published 2023)
